PubChem BioAssay (NCI)
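How tested: cells in 96-well plates exposed to compound for 48 hours at five concentrations. The concentration for 50% growth inhibition is given as GI50. TGI: total growth inhibition.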

Assays:
Assay in all cases: growth of human tumour cells (NCI), 48 h
UACC-62 melanoma = test system: UACC-62 melanoma
IGROV1 ovarian = test system: IGROV1 ovarian
OVCAR-8 ovarian = test system: OVCAR-8 ovarian
CCRF-CEM leukemia = test system: CCRF-CEM leukemia
HCC-2998 colon = test system: HCC-2998 colon
SF-295 CNS = test system: SF-295 CNS
HOP-92 NSCLC = test system: HOP-92 NSCLC
NCI/ADR-RES ovarian = test system: NCI/ADR-RES ovarian
OVCAR-5 ovarian = test system: OVCAR-5 ovarian
NCI-H460 lung = test system: NCI-H460 lung

Row | SMILES | GI50 (UACC-62 melanoma) | TGI (UACC-62 melanoma) | GI50 (IGROV1 ovarian) | TGI (IGROV1 ovarian) | GI50 (OVCAR-8 ovarian) | TGI (OVCAR-8 ovarian) | GI50 (CCRF-CEM leukemia) | TGI (CCRF-CEM leukemia) | GI50 (HCC-2998 colon) | TGI (HCC-2998 colon) | GI50 (SF-295 CNS) | TGI (SF-295 CNS) | GI50 (HOP-92 NSCLC) | TGI (HOP-92 NSCLC) | GI50 (NCI/ADR-RES ovarian) | TGI (NCI/ADR-RES ovarian) | GI50 (OVCAR-5 ovarian) | TGI (OVCAR-5 ovarian) | GI50 (NCI-H460 lung) | TGI (NCI-H460 lung)
1 | C[C@]12CC[C@@H]3c4ccc(O)cc4C[C@@H](CCCCCCCCCS(=O)CCCC(F)(F)C(F)(F)F)[C@H]3[C@@H]1CC[C@@H]2O (stereo not given in full) | > 100 µM | > 100 µM | > 100 µM | > 100 µM | > 100 µM | > 100 µM | > 100 µM | > 100 µM | > 100 µM | > 100 µM | > 100 µM | > 100 µM | > 100 µM | > 100 µM | > 100 µM | > 100 µM | > 100 µM | > 100 µM | > 100 µM | > 100 µM
2 | O=c1[nH]c(=O)n(C2CC(O)C(CS)O2)cc1F (stereo not given) |  | > 100 µM |  | > 100 µM |  | > 63.1 µM |  | > 100 µM |  | > 100 µM |  | > 100 µM |  | > 96.7 µM |  | > 11.7 µM |  | > 100 µM |  | > 100 µM
3 | C[C@]12CC[C@@H]3c4ccc(O)cc4CC[C@H]3[C@@H]1CC[C@@H]2NS(=O)(=O)c1ccc(C(F)(F)F)cc1 | 1.83 µM | 3.55 µM | 2.45 µM | 6.23 µM | 2.54 µM | 6.95 µM | 2.77 µM | 9.8 µM | 2.11 µM | 4.37 µM | 1.91 µM | 3.9 µM | 1.51 µM | 3.28 µM | 2.17 µM | 5.7 µM | 1.7 µM | 3.26 µM | 1.98 µM | 4.11 µM
4 | CC12CCCC(CC(=O)c3[nH]c4ccccc4c31)C2 (stereo not given) | 0.491 µM | > 60.3 µM | 0.793 µM | > 100 µM | 2.01 µM | 30.7 µM | 0.459 µM | > 100 µM | 1.79 µM | 24.6 µM | 0.508 µM | 7.37 µM | 2.56 µM | 36.7 µM | 0.439 µM | 6.96 µM | 2.82 µM | > 100 µM | 1.58 µM | 19.7 µM
5 | CC(C)(C)C1=CC(=CC=C2C=CN(CCCCCCCCCCCO)C=C2)C=C(C(C)(C)C)C1=O |  | 2.96 µM |  | 2.26 µM |  | 2.1 µM |  | 11.7 µM |  | 2.27 µM |  | 2.95 µM |  | 6.16 µM |  | 11.7 µM |  | 6.52 µM |  | 4.55 µM
6 | COc1ccc(C(=O)/C=C/c2cccnc2Nc2cc(OC)c(OC)c(OC)c2)cc1 | 1.71 µM | 4.38 µM | 3.03 µM | 21.3 µM | 2.2 µM | 11 µM | 0.711 µM | 6.15 µM | 1.35 µM | 2.85 µM | 1.71 µM | 18.9 µM | 2.4 µM | 11.8 µM | 1 µM | 6.29 µM | 3.36 µM | 10 µM | 1.84 µM | 8.57 µM
7 | CC(C)CSc1nc(Nc2ccccc2)c(C#N)c(-c2ccc(F)cc2)n1 | 16.5 µM | 43.5 µM | 0.702 µM | 10 µM | 3.27 µM | 16.1 µM | 5.53 µM | > 100 µM | 13.1 µM | > 100 µM | 0.971 µM | 11.4 µM | 0.605 µM | 2.63 µM | 4.87 µM | 25.3 µM | 4.03 µM | 24 µM | 0.806 µM | 12.1 µM
